As a reminder, the IC50 is the midpoint of a concentration-inhibition curve. The low end stands for higher potency, the high end for lower potency.

Activity calls are given as the source filed them. The calls are words filed in the database; no cut-off is given here.

Activity, inhibition and IC50 data for five compounds are collected here from ChEMBL document CHEMBL5390293, “Additional Sarasinosides from the Marine Sponge Melophlus sarasinorum Collected from the Bismarck Sea” (J Nat Prod, 2023).

Experiment [1] relates to A549. Nature of the experiment: Cytotoxicity against human A549 cells assessed as cell viability at 20 ug/ml by MTT assay. Format: functional, cell-based. The note with it: dose 20.0 µg/ml. A general note: Formazan colour is commonly taken as a measure of viable cells.
Experiment [2] concerns A2058. Put plainly: Cytotoxicity against human A2058 cells assessed as cell viability at 20 ug/ml by MTT assay. Format: functional, cell-based. The note with it: dose 20.0 µg/ml.
Experiment [3] relates to HepG2. Put plainly: Cytotoxicity against human HepG2 cells assessed as cell viability at 20 ug/ml by MTT assay. The note with it: dose 20.0 µg/ml. Format: functional, cell-based.
The test system of experiment [4] is MCF7. Put plainly: Cytotoxicity against human MCF7 cells assessed as cell viability at 20 ug/ml by MTT assay. The experiment is classed as functional, cell-based. The note with it: dose 20.0 µg/ml.
The test system of experiment [5] is MIA PaCa-2. Nature of the experiment: Cytotoxicity against human MIA PaCa-2 cells assessed as cell viability at 20 ug/ml by MTT assay. The experiment is classed as functional, cell-based. The note with it: dose 20.0 µg/ml.
The test system of experiment [6] is Staphylococcus aureus. Put plainly: Antimicrobial activity against methicillin sensitive Staphylococcus aureus assessed as bacterial growth inhibition. The experiment is classed as functional, organism-based.
The subject of experiment [7] is Escherichia coli. Nature of the experiment: Antimicrobial activity against Escherichia coli assessed as bacterial growth inhibition. The experiment is classed as functional, organism-based.
Experiment [8] concerns Acinetobacter baumannii. Put plainly: Antimicrobial activity against Acinetobacter baumannii assessed as bacterial growth inhibition. The experiment is classed as functional, organism-based.
Experiment [9] has as its system Nakaseomyces glabratus. Put plainly: Antimicrobial activity against Candida glabrata assessed as fungal growth inhibition. Format: functional, organism-based.
The subject of experiment [10] is Candida albicans. Nature of the experiment: Antimicrobial activity against Candida albicans assessed as fungal growth inhibition. The experiment is classed as functional, organism-based.
Experiment [11] has as its system Pichia kudriavzevii. Put plainly: Antimicrobial activity against Pichia kudriavzevii assessed as fungal growth inhibition. The experiment is classed as functional, organism-based.
Experiment [12] deals with Candida parapsilosis. Nature of the experiment: Antimicrobial activity against Candida parapsilosis assessed as fungal growth inhibition. Format: functional, organism-based.
For experiment [13], the system named is Candida tropicalis. Nature of the experiment: Antimicrobial activity against Candida tropicalis assessed as fungal growth inhibition. The experiment is classed as functional, organism-based.
For experiment [14], the system named is Aspergillus fumigatus. Put plainly: Antimicrobial activity against Aspergillus fumigatus assessed as fungal growth inhibition. Format: functional, organism-based.
The test system of experiment [15] is HepG2. Put plainly: Cytotoxicity against human HepG2 cells incubated for 48 hrs by absorbance based assay. Format: functional, cell-based. The note with it: HepG2, 48 h.
Experiment [16] relates to N2a. Nature of the experiment: Cytotoxicity against mouse Neuro2a cells incubated for 24 hrs by absorbance based assay. The experiment is classed as functional, cell-based.

For `CO[C@H]1C[C@H]([C@H](C)CC(=O)C=C(C)C)[C@@]2(C)CC[C@@]3(O)C(=C12)CC[C@H]1C(C)(C)[C@@H](O[C@@H]2OC[C@@H](O[C@@H]4O[C@H](CO)[C@H](O)[C@H](O)[C@H]4NC(C)=O)[C@H](O)[C@H]2O[C@@H]2O[C@H](CO[C@@H]4OC[C@@H](O)[C@H](O)[C@H]4O)[C@@H](O)[C@H](O)[C@H]2NC(C)=O)CC[C@@]13C`, the result in [1], in experiment [2], in experiment [3] and in experiment [4] was inactive. Also, the inhibition entry in [5], in experiment [6], in experiment [7], in [8], in experiment [9] and in experiment [10] was “inactive” in each case. The inhibition result in [11], in [12], in experiment [13] and in [14] was “inactive” each time.

With `CC(=O)N[C@H]1[C@H](O[C@@H]2CO[C@@H](O[C@H]3CC[C@]4(C)C5=CC[C@@]6(C)C(=C(CC[C@H]4C3(C)C)O5)CC[C@@H]6[C@H](C)CC(=O)C=C(C)C)[C@H](O[C@@H]3O[C@H](CO[C@@H]4OC[C@@H](O)[C@H](O)[C@H]4O[C@@H]4O[C@H](CO)[C@@H](O)[C@H](O)[C@H]4O)[C@@H](O)[C@H](O)[C@H]3NC(C)=O)[C@H]2O)O[C@H](CO)[C@H](O)[C@@H]1O`, the IC50 in experiment [15] was found to be 5.9 µM.

Regarding `CC(=O)N[C@H]1[C@H](O[C@@H]2CO[C@@H](O[C@H]3CC[C@]4(C)C5=C(CC[C@H]4C3(C)C)[C@@H]3CC[C@H]([C@H](C)CC(=O)C=C(C)C)[C@@]3(C)CC5)[C@H](O[C@@H]3O[C@H](CO[C@@H]4OC[C@@H](O)[C@H](O)[C@H]4O)[C@@H](O)[C@H](O)[C@H]3NC(C)=O)[C@H]2O)O[C@H](CO)[C@H](O)[C@@H]1O`, the result in [1], in [2], in experiment [3] and in experiment [4] was inactive. Moreover, the inhibition entry in experiment [5], in experiment [6], in [7], in experiment [8], in experiment [9] and in experiment [10] was “inactive” throughout. Moreover, the inhibition entry in experiment [11], in experiment [12], in experiment [13] and in [14] was “inactive” throughout.

In experiment [16], `CC(=O)N[C@H]1[C@H](O[C@@H]2CO[C@@H](O[C@H]3CC[C@]4(C)C5=C(CC[C@H]4C3(C)C)C3CC[C@H]([C@H](C)CC(=O)C=C(C)C)[C@@]3(C)CC5)[C@H](O[C@@H]3O[C@H](CO[C@@H]4OC[C@@H](O)[C@H](O)[C@H]4O[C@@H]4O[C@H](CO)[C@H](O)[C@@H](O)[C@H]4O)[C@@H](O)[C@H](O)[C@H]3NC(C)=O)[C@H]2O)O[C@H](CO)[C@H](O)[C@@H]1O` (some centres undefined) gave an IC50 of 5.8 µM.

`CO[C@@H]1C[C@H]([C@H](C)CC(=O)C=C(C)C)[C@@]2(C)CC[C@@]3(O)C(=C12)CC[C@H]1C(C)(C)[C@@H](O[C@@H]2OC[C@@H](O[C@@H]4O[C@H](CO)[C@H](O)[C@H](O)[C@H]4NC(C)=O)[C@H](O)[C@H]2O[C@@H]2O[C@H](CO[C@@H]4OC[C@@H](O)[C@H](O)[C@H]4O)[C@@H](O)[C@H](O)[C@H]2NC(C)=O)CC[C@@]13C`: the outcome in experiment [1], in experiment [2], in experiment [3] and in [4] was inactive. Moreover, the inhibition entry in [5], in experiment [6], in [7], in experiment [8], in [9] and in experiment [10] was “inactive” in each case. The inhibition result in [11], in experiment [12], in [13] and in experiment [14] was “inactive” each time.
